Like-named read-outs stand apart in the source and are kept apart here.
Tests used:
[1] = system: patient derived organoids; test: Death of patient derived organoids, % of cells that died compared to control (Table 4); assay type: cell-based, human
Experimental: In addition to the agents listed above, several other drugs were tested to see if they influenced organoid growth. […] This is consistent with the patient's actual lack of response to treatment with paclitaxel.

[2] = system: stage IV chemoresistant endometrial cancer with metastatic disease; test: Treatment of a patient with stage IV chemoresistant endometrial cancer, PET/CT follow up
Source text: Soon after the experiments detailed above a person came to us. They were initially diagnosed with endometriosis, and later diagnosed with endometrial cancer after presenting with significant pain and discomfort. They had already undergone a total hysterectomy and bilateral salpingo-oophorectomy followed by five rounds of chemotherapy. Each of the first five rounds of chemotherapy was a combined chemotherapy with Paclitaxil/Carboplatin.
See, Tables 1 and 2, below. […] As such, […] began standard protocol GemCap treatment in combination with a regime of 30 mg of BSHE twice daily via oral mucosal delivery and 75 mg of FSHE once daily via intravaginal delivery.

[3] = system: endometriosis based organoids; test: % viability of endometriosis based organoids (FIG. 6A/6B); assay type: cell-based, human
Experimental: After narrowing down the range in which 50% of endometrial cancer organoids were inhibited from forming in the presence of BSHE, we then turned to other cannabis extracts comprising CBE to determine their efficacy in inhibiting cancerous organoid formation. […] These cannabis extracts were then tested against endometrial based organoids, which confirm the efficacy across the different cells, both in the endometrial cancer based organoids as well as in the endometriosis based organoids.
FIG. 6B then tests the same endometrial based organoids with a CBDA isolate. Here, slightly higher concentrations were required to reach below 10% viability. […] However, these studies confirm that the efficacy of the CE comprising CBD was conserved over different grades of endometrial cancer and also to endometriosis based organoids.

[4] = system: patient derived endometrial cancer cells; test: Patient-derived xenograft (PDX) mice, endometrial cancer tumor volume (FIG. 7); assay type: in vivo; conditions: for decrease in tumor volume compared to starting size: day 14 (6 doses)
Experimental: Mouse studies are useful to take cell-based applications and confirm their efficacy in a whole animal system. Furthermore, the mice allow for testing of systemic delivery of the drugs. […] The mice tests were performed according to the protocol in the method section, below.
Generally, EC stem cells from the same patients that participated in the organoid studies for endometrial cancer, were injected into the mice, and allowed to grow. After tumors reached a certain size, the mice were either injected (3 times/week) with the extract-delivery vehicle or with the particular cannabis extract. After a certain amount of time elapsed, tumor size was measured. The details regarding patient-derived xenograft methodology and experimental protocol are provided in the Methods section.
The % change is an average number taken from tumor volumes of three mice compared to the starting average tumor volume on day 0 of treatment. Change can either be positive (tumor increases in size) or negative (tumor decreases in size).
Human patient cells from endometrial cancer were injected subcutaneously into female NOD/SCID gamma mice after resuspending in 100 μL solution. […] Tumor size was measured before treatment, followed by twice a week measurements. All treatment group mice were kept alive for up to 10 weeks after drug injection or until the tumor volume grows bigger than 2500 mm^3.
Tumor size was measured along with body weight at the time of tissue collection. All tumor tissues were removed carefully from the euthanized mouse body. Tumor tissue samples were kept for histology, proteomics, genomics, and other downstream processing. All downstream processing was completed following NCI Patient-Derived Models Repository SOPs.

[5] = system: organoids derived from ovarian cancer tissue; test: Impact of pH on % viable organoids (FIG. 9)
[6] = oral; cited from earlier work
[7] = cited from earlier work
non-transformed cells = conditions: cited from earlier work
[8] = system: organoids crafted from the patient's endometrial cancer; test: Response of organoids crafted from the patient's endometrial cancer to alternative chemotherapies and BSHE; assay type: cell-based, human
Source text: See, Tables 1 and 2, below.

[9] = before cannabis extract treatment

## 5-Fluorouaracil/Capecitabine
[1]
  % Cell Death: 61%

## CCN1CCN(Cc2ccc(Nc3ncc(F)c(-c4cc(F)c5nc(C)n(C(C)C)c5c4)n3)nc2)CC1 [Abemaciclib, reference compound]
[2]; human, in vivo
  adverse effects of earlier therapy: severe adverse effects

## C=C(C)[C@@H]1CCC(C)=C[C@H]1c1c(O)cc(CCCCC)cc1O [CBD isolate, cannabidiol]
[3]; tested at 0, 1, 2, 3, 4, 5, 7, 10 μg/mL, FIG. 6A
  lowest dose at which the organoids are completely treated: 5 µg/mL
[4]; 30 mg/kg injected 3 times/week
  tumor response over the 21 days of treatment: not as responsive
[4]; 30 mg/kg
  decrease in tumor volume compared to starting size: less than 50%
[5]; 10 μg/mL, pH 8
  efficacy compared with native pH: virtually no change
[5]; pH 4
  viability at 10 µg/mL: < 1%
[5]; read-out: % of viable organoids
  viability at 10 µg/mL: ~12%
[6]
  delayed maximum plasma concentration (time) in some individuals: up to 6 hours
[7]; WHO 41st Expert Committee on Drug Dependence
  potential for abuse or dependence: no potential for abuse and no potential to produce dependence
[7]; chronic use, humans
  well tolerated dose: up to 1,500 mg/day
[7]; in vivo
  effect on physiological parameters (heart rate, blood pressure and body temperature), gastrointestinal transit, psychomotor or psychological functions: does not affect
non-transformed cells
  toxicity: non-toxic

## C=C(C)[C@@H]1CCC(C)=C[C@H]1c1c(O)cc(CCCCC)c(C(=O)O)c1O [CBDA isolate, cannabidiolic acid]
[3]; 50 μg/mL, FIG. 6B
  viability outcome: complete resolution
[3]; Homo sapiens, 15 μg/mL, FIG. 6B
  viability at 15 µg/mL: < 50%
[3]; Homo sapiens, 25 μg/mL, FIG. 6B, <10% is considered 95-100% cell death
  viability at 25 µg/mL: < 10%
[4]; 30 mg/kg injected 3 times/week, day 7 (3 doses)
  increase in average tumor volume vs day 0: greater than 30%
[4]; 30 mg/kg injected 3 times/week, day 10
  decrease in average tumor volume vs day 0: greater than 30%
[4]; 30 mg/kg, day 7 to day 10
  overall decrease in average tumor volume in three days: greater than 60%
[4]; 30 mg/kg
  decrease in tumor volume compared to starting size: 70%
[4]; 30 mg/kg, day 21 (9 doses)
  decrease in average tumor volume: ~100%

## N.N.O=C([O-])C1(C(=O)[O-])CCC1.[Pt+2] [Carboplatin]
[1]
  % Cell Death: 30%

## N.N.[Cl][Pt][Cl] [Cisplatin]
[1]
  % Cell Death: 36%

## O=P1(N(CCCl)CCCl)NCCCO1 (centres unmarked) [Cyclosphosphamide]
[1]
  % Cell Death: 32%

## Atezolizumab
[2]; [9]
  adverse effects of earlier therapy: severe adverse effects
  clinical outcome of earlier therapy: failed

## Bleomycin
[1]
  % Cell Death: 53%

## Paclitaxil/Carboplatin [reference compound]
[2]; [9]
  clinical outcome of earlier therapy: ineffective

## gemcitabine/capecitabine [GemCap]
[8]
  response of the patient's organoids: partial response

Reference: patent US12409199B2, “Methods of treating endometriosis and other noncancer gynecological disorders with hemp extract” (Ecofibre USA Inc., priority 2021, dated 2025)
